In ChEMBL document CHEMBL3112450, “Synthesis and in vitro antitumor evaluation of primary amine substituted quinazoline linked benzimidazole” (Bioorg Med Chem Lett, 2014):

Columns and labels:
Format in all cases: functional
[1] = system: 786-0; assay: Cytotoxicity against human 786-0 cells assessed as cell growth at 10^-7 M after 48 hrs by SRB assay; details: 786-0, 48 h, read-out: Activity
[2] = system: ACHN; assay: Cytotoxicity against human ACHN cells after 48 hrs by SRB assay
[3] = system: HCT-116; assay: Cytotoxicity against human HCT116 cells assessed as cell growth at 10^-7 M after 48 hrs by SRB assay; details: HCT-116, 48 h, read-out: Activity
[4] = system: SF-268; assay: Cytotoxicity against human SF268 cells after 48 hrs by SRB assay; details: SF-268, 48 h
[5] = system: SK-MEL-2; assay: Cytotoxicity against human SK-MEL-2 cells assessed as cell growth at 10^-7 M after 48 hrs by SRB assay; details: SK-MEL-2, 48 h, read-out: Activity
[6] = system: NCI-H226; assay: Cytotoxicity against human NCI-H226 cells assessed as cell growth at 10^-8 M after 48 hrs by SRB assay; details: NCI-H226, 48 h, read-out: Activity
[7] = Cytotoxicity against human NCI-ADR-RES cells assessed as cell growth at 10^-7 M after 48 hrs by SRB assay; details: read-out: Activity
[8] = system: A498; assay: Cytotoxicity against human A498 cells assessed as cell growth at 10^-6 M after 48 hrs by SRB assay; details: A498, 48 h, read-out: Activity
[9] = system: NCI-H460; assay: Cytotoxicity against human NCI-H460 cells assessed as cell growth at 10^-7 M after 48 hrs by SRB assay; details: NCI-H460, 48 h, read-out: Activity
[10] = system: UACC-62; assay: Cytotoxicity against human UACC62 cells assessed as cell growth at 10^-6 M after 48 hrs by SRB assay; details: UACC-62, 48 h, read-out: Activity
[11] = system: SF-295; assay: Cytotoxicity against human SF295 cells assessed as cell growth at 10^-6 M after 48 hrs by SRB assay; details: SF-295, 48 h, read-out: Activity
[12] = system: MOLT-4; assay: Cytotoxicity against human MOLT4 cells assessed as cell growth at 10^-8 M after 48 hrs by SRB assay; details: MOLT-4, 48 h, read-out: Activity
[13] = system: HL-60(TB); assay: Cytotoxicity against human HL-60(TB) cells assessed as cell growth at 10^-6 M after 48 hrs by SRB assay; details: HL-60, 48 h, read-out: Activity
[14] = system: SW-620; assay: Cytotoxicity against human SW620 cells assessed as cell growth at 10^-4 M after 48 hrs by SRB assay; details: SW-620, 48 h, read-out: Activity
[15] = system: MDA-MB-468; assay: Cytotoxicity against human MDA-MB-468 cells assessed as cell growth at 10^-8 M after 48 hrs by SRB assay; details: MDA-MB-468, 48 h, read-out: Activity
[16] = system: OVCAR-8; assay: Cytotoxicity against human OVCAR8 cells assessed as cell growth at 10^-8 M after 48 hrs by SRB assay; details: OVCAR-8, 48 h, read-out: Activity
[17] = system: T47D; assay: Cytotoxicity against human T47D cells assessed as cell growth at 10^-6 M after 48 hrs by SRB assay; details: read-out: Activity
[18] = system: ACHN; assay: Cytotoxicity against human ACHN cells assessed as cell growth at 10^-8 M after 48 hrs by SRB assay; details: read-out: Activity
[19] = system: HL-60(TB); assay: Cytotoxicity against human HL-60(TB) cells after 48 hrs by SRB assay; details: HL-60, 48 h
[20] = system: MDA-MB-231; assay: Cytotoxicity against human MDA-MB-231 cells assessed as cell growth at 10^-4 M after 48 hrs by SRB assay; details: MDA-MB-231, 48 h, read-out: Activity
[21] = system: NCI-H460; assay: Cytotoxicity against human NCI-H460 cells assessed as cell growth at 10^-6 M after 48 hrs by SRB assay; details: NCI-H460, 48 h, read-out: Activity
[22] = system: SW-620; assay: Cytotoxicity against human SW620 cells assessed as cell growth at 10^-7 M after 48 hrs by SRB assay; details: SW-620, 48 h, read-out: Activity
[23] = system: SW-620; assay: Cytotoxicity against human SW620 cells after 48 hrs by SRB assay; details: SW-620, 48 h
[24] = system: TK-10; assay: Cytotoxicity against human TK10 cells after 48 hrs by SRB assay; details: TK-10, 48 h
[25] = system: SK-OV-3; assay: Cytotoxicity against human SKOV3 cells after 48 hrs by SRB assay; details: SK-OV-3, 48 h
[26] = system: BT-549; assay: Cytotoxicity against human BT549 cells assessed as cell growth at 10^-8 M after 48 hrs by SRB assay; details: BT-549, 48 h, read-out: Activity
[27] = system: U-251; assay: Cytotoxicity against human U251 cells assessed as cell growth at 10^-4 M after 48 hrs by SRB assay; details: U-251, 48 h, read-out: Activity
[28] = system: SF-539; assay: Cytotoxicity against human SF539 cells after 48 hrs by SRB assay; details: SF-539, 48 h
[29] = Cytotoxicity against human OVCAR5 cells assessed as cell growth at 10^-8 M after 48 hrs by SRB assay; details: OVCAR-5, 48 h, read-out: Activity
[30] = Cytotoxicity against human OVCAR4 cells assessed as cell growth at 10^-6 M after 48 hrs by SRB assay; details: OVCAR-4, 48 h, read-out: Activity
[31] = system: PC-3; assay: Cytotoxicity against human PC3 cells assessed as cell growth at 10^-6 M after 48 hrs by SRB assay; details: PC-3, 48 h, read-out: Activity
[32] = system: RPMI-8226; assay: Cytotoxicity against human RPMI8226 cells after 48 hrs by SRB assay; details: RPMI-8226, 48 h
[33] = system: HCC 2998; assay: Cytotoxicity against human HCC2998 cells assessed as cell growth at 10^-8 M after 48 hrs by SRB assay; details: HCC 2998, 48 h, read-out: Activity
[34] = system: SF-268; assay: Cytotoxicity against human SF268 cells assessed as cell growth at 10^-8 M after 48 hrs by SRB assay; details: SF-268, 48 h, read-out: Activity
[35] = system: HT-29; assay: Cytotoxicity against human HT-29 cells assessed as cell growth at 10^-8 M after 48 hrs by SRB assay; details: HT-29, 48 h, read-out: Activity
[36] = system: NCI-H226; assay: Cytotoxicity against human NCI-H226 cells assessed as cell growth at 10^-4 M after 48 hrs by SRB assay; details: NCI-H226, 48 h, read-out: Activity
[37] = Cytotoxicity against human UO31 cells assessed as cell growth at 10^-6 M after 48 hrs by SRB assay; details: UO-31, 48 h, read-out: Activity

In the case of `C=CCn1c(C)nc2ccc(Nc3nc(Nc4ccc5nc(C)n(CC=C)c5c4)c4ccccc4n3)cc21`, the growth at 0.1 µM [1] is reported as 98%, the GI50 [2] is reported as 1.64 µM and the LC50 [2] is reported as 5.51 µM. The TGI [2] was 3.01 µM, the growth at 0.1 µM [3] was 99% and the GI50 [4] was 1.54 µM. It also gave a TGI [4] of 3.22 µM, a growth at 0.1 µM [5] of 99% and a growth at 0.01 µM [6] of 90%. For the same compound, the growth at 0.1 µM [7] was 95%, the growth at 1 µM [8] was 42% and the growth at 0.1 µM [9] was 101%. For the same compound, the growth at 1 µM [10] was 86%, the growth at 1 µM [11] was 97% and the growth at 0.01 µM [12] was 101%. For the same compound, the growth at 1 µM [13] was 95%, the growth at 100 µM [14] was -17% and the growth at 0.01 µM [15] was 93%. For the same compound, the growth at 0.01 µM [16] was 97%, the growth at 1 µM [17] was 80% and the growth at 0.01 µM [18] was 103%. For the same compound, the GI50 [19] was 1.86 µM, the TGI [19] was 3.72 µM and the growth at 100 µM [20] was -63%. It also gave a growth at 1 µM [21] of 97%, a growth at 0.1 µM [22] of 94% and a GI50 [23] of 1.5 µM. It also gave a TGI [23] of 2.94 µM, a GI50 [24] of 2.04 µM and a TGI [24] of 3.5 µM. The GI50 [25] was 1.72 µM, the LC50 (concentration killing 50% of cells) [25] was 5.56 µM and the TGI [25] was 3.09 µM. The growth at 0.01 µM [26] was 99%, the growth at 100 µM [27] was -22% and the GI50 [28] was 1.71 µM. The LC50 (concentration giving 50% net cell kill) [28] was 5.71 µM, the TGI [28] was 3.12 µM and the growth at 0.01 µM [29] was 95%. For the same compound, the growth at 1 µM [30] was 84%, the growth at 1 µM [31] was 71% and the GI50 [32] was 1.87 µM. For the same compound, the LC50 [32] was greater than 100 µM, the growth at 0.01 µM [33] was 92% and the growth at 0.01 µM [34] was 90%. For the same compound, the growth at 0.01 µM [35] was 102%, the growth at 100 µM [36] was -38% and the growth at 1 µM [37] was 71%.
